# Reference: paper PMC5700161, “Structure of human immunoproteasome with a reversible and noncompetitive inhibitor that selectively inhibits activated lymphocytes” (Nature Communications, 2017)
# “Also recorded” adds a separate entry of the source.
# Tests used:
# [1] = molecular target: T1, β5i (i-20S) (Homo sapiens, UniProt P20618+P28062); experiment: Kinetics studies of modality of inhibition against β5i; assay type: biochemical
# T1 construct: purchased Boston Biochem
# Experimental: Data as in d are shown in double reciprocal plots in e, and data from f in g. […] Data are means ± SEM of three independent experiments […]
# With increasing concentrations of PKS21004, both V max and K M decreased (Fig. 1d–g and Supplementary Fig. 1). […] This class thus joins a growing list of noncompetitive proteasome inhibitors[5],[30].
# Supplementary Figure 11. Inhibition kinetics of PKS21221 against i-20S β5i. (A) Steady state velocities of the Ac-ANW-AMC hydrolysis at 10, 15, 25, 35 µM by i-20S β5i (0.4 nM) in the presence of PKS21221 at indicated concentrations were determined at 37 °C and plotted by RFU versus substrate concentration (A); values of KM, Ki and α were estimated by PRISM using equation V = (Vmax / (1 + I / (α*Ki))) * S / (KM * (1+ I / Ki) / (1 + I / (α*Ki)) + S); (B) Lineweaver-Burk plot of the data in (A). (C) Plot of KM versus concentrations of PKS21221 indicates a mixed type inhibition. (D) Plot of Vmax versus concentrations of PKS21221.
# (1 picture or pasted object on this page, not shown here)
# [2] = tested on: proliferating T cells; experiment: Apoptosis and viability of proliferating vs non-proliferating T cells; assay type: cell-based, human; conditions: 4 days anti-CD3/anti-CD28, then 24 h; PKS21221 1 µM, BTZ 10 nM
# Text: As we observed selective cytotoxicity of PKS21221 in activated B cells and ASCs compared to non-activated B cells, we asked whether this is the case in proliferating T cells. We activated human T cells to proliferate with anti-CD3 and anti-CD28 in the presence or absence of PKS21221 or bortezomib. […] To examine whether these inhibitors are cytotoxic preferentially to proliferating cells, we triggered T-cell proliferation with anti-CD3/anti-CD28 for 4 days (in the absence of inhibitors), treated the cells with PKS21221 for the next 24 h and determined cell survival with Annexin V and 7-AAD (Fig. 6c, d).
# Fig. 6 Effect of PKS21221 and bortezomib (BTZ) on T-cell proliferation. T cells were isolated from human PBMC and stimulated with anti-CD3 (1 µg per ml) and anti-CD28 (1 µg per ml) for 4 days. […] Apoptosis c and viability d were assessed in proliferating and non-proliferating population of T cells. […]
# T cells were isolated from human PBMCs using Human T-cell Isolation kit (StemCell Technologies, Cat#17951). […] Cells were counted and loaded with 5 μM CellTrace Violet (Thermo Fisher) in phosphate buffered saline (PBS) for 10 min at 37 °C, followed by wash in 10% fetal calf serum (FCS)-supplemented RPMI 1640 media. […] The viability and apoptosis were assessed using Annexin V Apoptosis Detection Kit (BD Biosciences). […]
# [3] = tested on: PBMCs; experiment: Viability of total PBMCs in ASC differentiation culture (7-AAD); assay type: cell-based
# Experimental: The immunoproteasome plays important roles in T cell differentiation and proliferation and dendritic cell activation and maturation[14],[20],[24]. However, its role in B cell differentiation is not well understood. […] Differentiated ASCs were then exposed to PKS21221 at indicated concentrations and cell survival was determined with Annexin V and 7-aminoactinomycin D (7-AAD) at three-time points (12-h, 24-h, and 48-h after treatment). […] In addition, the cytotoxicity of PKS21221 to different cell populations in PBMC was examined and compared to the cytotoxicity of bortezomib. PBMCs were incubated with PKS21221 or bortezomib, and the viability was assessed in T cells (CD3^+), B cells (CD19^+), monocytes (CD14^+) and dendritic cells (CD3^−CD19^−CD14^−CD16^−CD11c^+HLA-DR^+), respectively (Supplementary Fig. 13b–e).
# PBMCs were cultured with or without IL-2/R848 for 5 days, followed by 12-h incubation with PKS21221 at different concentrations. a Representative flow cytometry plots of cells treated with IL-2 and R848 in the presence and absence of PKS21221. […] Annexin V^+7-AAD^− cells were referred as “Early apoptosis” population, and Annexin V^+7-AAD^+ cells were referred as “Dead” population. d Percentage of early apoptotic ASCs (left) and dead ASCs (right), after 12-h incubation with PKS21221. […]
structure (smiles),measurement,setting,value
Cc1ccc(S(=O)(=O)N[C@@H](CC(=O)NC(C)(C)C)C(=O)NCCNC(=O)c2cc(-c3ccccc3F)ccc2F)cc1 [PKS21221],α for β5i (αi-20S),[1],0.26
same,modality of inhibition of β5i,[1]; versus substrate,noncompetitive
same,"apoptosis and cell death, proliferating vs non-proliferating T cells",[2],induced apoptosis and cell death to a greater extent in proliferating T cells than in non-proliferating T cells
same,overall viability of PBMCs,[3],not affected; also recorded: did not affect overall viability
